Tests used:
[1] = system: THP-1 cells; experiment: Cytotoxicity in the THP-1 NFκB assay; format: cell-based, human; conditions: at active concentrations
[2] = system: RAW 264.7; experiment: Toxicity in RAW 264.7; format: cell-based, mouse
[3] = system: adjuvant-induced arthritis; experiment: Rat adjuvant-induced arthritis model; format: in vivo
Experimental: Male Dark Agouti (DA) strain (DA.CD45.1) rats were fed with either compound (1)-treated feed or placebo-treated feed for seven days prior to the injection of Complete Freund's adjuvant (0.1 ml) into the base of the tail. The treated feeds were continued throughout the experiment. Arthritis, which became evident at Day 8 was subjectively scored each day by an operator blinded to the identity of treatments and using a scoring system as follows: • 0 (no evidence of arthritis); • 1 (1 or 2 red, swollen joints but no other swelling); • 2 (carpus or tarsus swollen or more than 2 small joints swollen); • 3 (some red swollen joints and carpus or tarsus swollen, but not global swelling); • 4 (severe global swelling of the entire paw). Therefore, the disease score for individual rats ranged between 0 and 16. Rats (n=8 per group) were killed on Day 12. Data were analysed using a two way ANOVA (Prism 4 for Windows, GraphPad Software Inc).

[4] = Interaction with Cu(II) (UV/Vis absorption spectra); format: physicochemical; conditions: 25 μM compound + 25 μM CuSO4, 1:1 molar ratio, pH 7.2
Experimental: The non-specific binding of compound (1) to Cu^++ was also examined in duplicate on different days. A stock solution of test compounds was prepared in DMSO at a concentration of 5 mM. The UV/Vis absorption spectra of was then determined between 200 and 800 nm after dilution of test compounds to 25 μM in phosphate buffer (10 mM, pH 7.2, chelex treated). Interactions of the compounds with Cu(II) were determined by scanning a second overlaying absorption spectrum over 200 to 800 nm, in which 25 μM CuSO4 solution was added to a fresh 25 μM solution of test compounds and mixed for 20 seconds.

[5] = system: PGE2; experiment: PGE2 synthesis in RA-stimulated U937 cells; format: cell-based, human; conditions: A23187 0.5 μM, 30 min
Experimental: (§1) U937 cells were thawed and resuspended in RPMI and 10% FCS at 2×10^5 cells per ml. The cells were incubated in 5% CO2 at 37° C. and expanded in growing culture to at least 6.4×10^7 total cells. The cells were then resuspended in fresh medium and cultured with 5 μM retinoic acid (RA) at 2×10^5 cells per ml for a further 3 days (72 h). RA treated cells were washed 2× in serum-free RPMI and resuspended in serum-free medium at 5×10^6 cells per ml. The cells were aliquotted into Teflon tubes at 1 ml per tube. Working stock solutions of compounds (1) and (3) were prepared at 0.1 mM, 1 mM and 10 mM as described above. For each working dilution, 10 μl was added to 1 ml cells to achieve a final concentration of 0 (DMSO alone), 1, 10, and 100 μM for each test compound. Cells were incubated in triplicate with each concentration of test compound for 15 min at 37° C. After 15 min pre-incubation, each 1 ml tube of cells received 5 μl of a […] solution of the calcium ionophore A23187 (to achieve 0.5 μM A23187). Incubation at 37° C. was continued for a further 30 min. After incubation, supernatants were collected by centrifugation at 2000 rpm for 10 min and stored at −20° C. until required for assay.

[6] = system: TXA2; experiment: TXA2 synthesis in RA-stimulated U937 cells; format: cell-based, human; conditions: A23187 0.5 μM, 30 min
Experimental: as §1

[7] = system: aortic ring; experiment: Rat aortic ring assay (contraction to noradrenaline); conditions: 1 μg/ml, p=0.045, read-out: Inhibition of the contractile response (logEC50) to noradrenaline compared with vehicle alone
Experimental: Male Sprague-Dawley rats (250±50 g) were euthanased with 80% CO2 and 20% O2. The thoracic aorta was excised and quickly mounted in organ-baths as described (Chin-Dusting et al. 2001). Full concentration-contractile curves were obtained to noradrenaline (0.1 nM-10 mM) with and without test compounds delivered at a concentration of 1 μg/ml. Experiments were repeated in n=5 different rings from 5 different animals. Only one compound at any one concentration was tested on any one ring from any one animal. Sigmoidal dose response curves were fitted for the data and the logEC50 calculated (Prism 4, GraphPad Software). The difference in these values between the presence and absence of test compound was calculated using a two-tailed paired t test. The effects of β-oestrodiol and vehicle alone were examined as a positive and negative control respectively.

[8] = system: rabbit kidney (RK-13); experiment: Toxicity in normal cells (MTT), RK-13; format: cell-based; conditions: Oryctolagus cuniculus, RK-13, 120 h, 5 days, top concentration 150 μM, read-out: Normal cell viability IC50
Experimental: Human neonatal fibroblast foreskin (NFF—a gift from Dr. Peter Parsons, Queensland Institute of Medical Research) or rabbit kidney (RK-13—a gift from Prof. Miller Whalley, Macquarie University) cells were seeded into 96 well plates and cultured in RPMI supplemented with 10% FCS (CSL, Australia), penicillin (100 U/ml), streptomycin ([…]), L-glutamine (2 mM) and sodium bicarbonate (1.2 g/L) at 37° C. and 5% CO2 for 24 hours until cells had attached and entered log phase of growth. Test compounds were added in serial two-fold dilutions from 150 μM in triplicate and incubated for a further 5 days. MTT was then added to each well, incubated for 3 hours at 37° C., after which the medium was tipped off. Following the addition of DMSO, the absorbance for each well was read on a plate reader. The assays were repeated at least twice.

[9] = Pharmacokinetics after a single oral dose in mice; format: in vivo, mouse; conditions: urine, oral 25 mg/kg; for AUC: mouse

Structure (SMILES)	PGE2 ([5]; 1 μM)	PGE2 ([5]; 10 μM)	PGE2 ([5]; 100 μM)	TXB2 ([6]; 1 μM)	TXB2 ([6]; 10 μM)	TXB2 ([6]; 100 μM)	IC50 [8]	AUC [9]	[max]free (μM, mean ± SD) [9]	also measured
CN(C)Cc1cc2c(cc1O)OCC(c1ccc(O)cc1)=C2 [Compound (1)]	1.485 ± 0.175 pg	1.58 ± 0.145 pg	0.881 ± 0.116 pg	35.833 ± 1.866 pg	41.697 ± 2.275 pg	21.708 ± 5.439 pg	> 150 µM	9.3 µM·h	5.6 ± 6.7 µM	Cytotoxicity [1]: absence of cytotoxicity; Effect on the viability of RAW 264.7 cells [2]: little effect on the viability; IC50 ([2]; Mus musculus, RAW264.7): 53.9 ± 1.2 µM; Joint score (mean ± SD) ([3]; Day 7, treated feed, score 0-16): 0; Joint score (mean ± SD) ([3]; Day 8, placebo 0.38 ± 0.52): 0.5 ± 0.53; Joint score (mean ± SD) ([3]; Day 9, placebo 4.75 ± 1.28): 3.25 ± 1.58; Joint score (mean ± SD) ([3]; Day 10, placebo 7.75 ± 1.39): 6.25 ± 1.49; Joint score (mean ± SD) ([3]; Day 11, placebo 11.75 ± 1.04): 9.25 ± 1.28; Joint score (mean ± SD) ([3]; Day 12, placebo 14.13 ± 1.46): 12.75 ± 2.92; Arthritis score compared with placebo feed (in words) ([3]; two way ANOVA): statistically significant (p=0.008) reduction in arthritis score; Interaction with Cu^2+ [4]: did not interact with Cu^2+; inhibition at 1 µg/mL [7]: 23%
O=C(O)C1CCCN1Cc1cc2c(cc1O)OCC(c1ccc(O)cc1)=C2 (stereo not shown) [Compound (3)]	1.025 ± 0.114 pg	1.271 ± 0.212 pg	1.39 ± 0.227 pg	18.434 ± 0.367 pg	26.276 ± 9.76 pg	12.668 ± 3.506 pg	> 150 µM	34 µM·h	3.9 ± 2.4 µM	melting point: 240 °C (dec.)

Source: patent US20120003270A1, “6-SUBSTITUTED ISOFLAVONOID COMPOUNDS AND USES THEREOF” (priority 2008, published 2012)
